We go through seven molecules from ChEMBL document CHEMBL1156236, “Trypanoside, anti-tuberculosis, leishmanicidal, and cytotoxic activities of tetrahydrobenzothienopyrimidines” (Bioorg Med Chem, 2010).

For data set [1], the system named is Trypanosoma cruzi. Description: Antitrypanosomal activity against Trypanosoma cruzi tulahuen C4 trypomastigotes infected mouse assessed as decrease in parasite replication at 20 mg/kg/day, ip on days 6 to 11 days post infection after 6 days. It counts as functional, organism-based.
A short description of data set [2]: (§1) Cytotoxicity against african green monkey Vero cells after 72 hrs by MTS assay. The conditions noted are these: chlorocebus sabaeus, Vero cells. In general terms: Tetrazolium assays rely on reduction of a dye to a coloured formazan, in cell work by metabolically active cells.
Data set [3] is described as follows: Selectivity index, ratio of IC50 for african green monkey Vero cells to MIC for Mycobacterium tuberculosis H37Rv ATCC 27294 by microplate alamar blue assay. Format: functional. A general note: Alamar Blue is a resazurin reagent that responds to reducing activity.
Data set [4] deals with Mycobacterium tuberculosis. Kind of data set: Antitubercular activity against Mycobacterium tuberculosis H37Rv ATCC 27294 after 7 days by low oxygen recovery assay. Format: functional. The conditions noted are these: H37Rv ATCC 27294, 168 h.
Data set [5] has as its system Mycobacterium tuberculosis. Kind of data set: Antitubercular activity against Mycobacterium tuberculosis H37Rv ATCC 27294 after 7 days by microplate alamar blue assay. It counts as functional. The following applies: H37Rv ATCC 27294, 168 h.
A further data set relates to Vero. The data set is described as §1. The conditions noted are these: Chlorocebus sabaeus, Vero, 72 h.
The next data set deals with Leishmania peruviana. Kind of data set: Antileishmanial activity against Leishmania peruviana MHOM/PE/LCA08 promastigote infected BALB/c mouse macrophages after 48 hrs by Giemsa staining method. Format: functional, organism-based. The following applies: MHOM/PE/LCA08, 48 h.
Data set [6] has as its system Leishmania amazonensis. Kind of data set: Antileishmanial activity against Leishmania amazonensis MHOM/BR/76/LTB-012 amastigotes infected BALB/c mouse macrophages after 48 hrs by MTT assay. It counts as functional, organism-based. The following applies: MHOM/BR/76/LTB-012, 48 h.
Data set [7] deals with Leishmania amazonensis. Description: Antileishmanial activity against Leishmania amazonensis LV79 MPRO/BR/72/M1841 amastigotes infected BALB/c mouse assessed as lesion diameter at 5 mg/kg/day, intralesionally administered after 1 week post infection 3 times per week for 6 weeks measured on week 4 relative to control. It counts as functional.
In another data set the test system is DU-145. Kind of data set: Cytotoxicity against human DU145 cells. It counts as functional.
The subject of the next data set is NCI-H460. Description: Cytotoxicity against human NCI-H460 cells. It counts as functional.
For data set [8], the system named is Trypanosoma cruzi. Description: Antitrypanosomal activity against Trypanosoma cruzi tulahuen C4 trypomastigotes infected in african green monkey Vero cells assessed as CPRG cleavage after 120 hrs by microplate reader. Format: functional, organism-based.
Data set [9] in a line: Cytotoxicity against BALB mouse 3T3 cells. Format: cell-based. The conditions noted are these: BALB 3T3 cells.
The subject of the next data set is MCF7. Kind of data set: Cytotoxicity against human MCF7 cells. It counts as functional.
Data set [10] can be described thus: Selectivity index, ratio of IC50 for african green monkey Vero cells to IC50 for Trypanosoma cruzi tulahuen C4. The following applies: Vero cells.
Data set [11] can be described thus: Selectivity index, ratio of IC50 for BALB/c mouse macrophages to IC50 for Leishmania amazonensis MHOM/BR/76/LTB-012.
A further data set deals with Leishmania braziliensis. Kind of data set: Antileishmanial activity against Leishmania braziliensis MHOM/PE/PER006 promastigote infected BALB/c mouse macrophages after 48 hrs by Giemsa staining method. Format: functional, organism-based. The following applies: MHOM/PE/PER006, 48 h.
Data set [12] deals with Leishmania amazonensis. Kind of data set: Antileishmanial activity against Leishmania amazonensis LV79 MPRO/BR/72/M1841 amastigotes infected BALB/c mouse assessed as reduction of parasite burden at 5 mg/kg/day, intralesionally administered after 1 week post infection 3 times per week for 6 weeks measured on week 7 by fluorescence method relative to control. Format: functional. The arrangement: scale not given: the % may be the effect or the level left.

A further data set has as its system HT-29. Description: Cytotoxicity against human HT-29 cells. Format: functional.
In data set [13] the test system is Leishmania amazonensis. Kind of data set: Antileishmanial activity against Leishmania amazonensis Lma CL1 amastigotes infected BALB/c mouse macrophages after 48 hrs by Giemsa staining method. It counts as functional, organism-based. The following applies: Lma CL1, 48 h.
Data set [14] in a line: Cytotoxicity against BALB/c mouse macrophages after 48 hrs by trypan blue dye exclusion method. Format: cell-based. The following applies: Macrophage.
The next data set deals with M14. Kind of data set: Cytotoxicity against human M14 cells. Format: functional.
The next data set concerns K562. Description: Cytotoxicity against human K562 cells. It counts as functional.
Data set [15] concerns Leishmania amazonensis. Kind of data set: Antileishmanial activity against Leishmania amazonensis LV79 MPRO/BR/72/M1841 amastigotes infected BALB/c mouse assessed as lesion diameter at 5 mg/kg/day, intralesionally administered after 1 week post infection 3 times per week for 6 weeks measured on week 7 relative to control. Format: functional.
Data set [16] deals with Leishmania amazonensis. Kind of data set: Antileishmanial activity against Leishmania amazonensis LV79 MPRO/BR/72/M1841 amastigotes infected BALB/c mouse assessed as reduction of parasite burden at 5 mg/kg/day, intralesionally administered after 1 week post infection 3 times per week for 6 weeks measured on week 4 by fluorescence method relative to control. It counts as functional. On the set-up: scale not given: the % may be the effect or the level left.

For data set [17], the system named is Leishmania amazonensis. Kind of data set: Antileishmanial activity against Leishmania amazonensis LV79 MPRO/BR/72/M1841 amastigotes infected BALB/c mouse assessed as lesion diameter at 33 mg/kg/day, intralesionally administered after 1 week post infection 3 times per week for 6 weeks measured on week 4 relative to control. Format: functional, organism-based.

Data set [18] has as its system Leishmania amazonensis. Description: Antileishmanial activity against Leishmania amazonensis LV79 MPRO/BR/72/M1841 amastigotes infected BALB/c mouse assessed as reduction of parasite burden at 33 mg/kg/day, intralesionally administered after 1 week post infection 3 times per week for 6 weeks measured on week 7 by fluorescence method relative to control. Format: functional, organism-based. On the set-up: scale not given: the % may be the effect or the level left.

Data set [19] relates to Leishmania amazonensis. Kind of data set: Antileishmanial activity against Leishmania amazonensis LV79 MPRO/BR/72/M1841 amastigotes infected BALB/c mouse assessed as lesion diameter at 33 mg/kg/day, intralesionally administered after 1 week post infection 3 times per week for 6 weeks measured on week 7 relative to control. It counts as functional, organism-based.
Data set [20] relates to Leishmania amazonensis. Description: Antileishmanial activity against Leishmania amazonensis LV79 MPRO/BR/72/M1841 amastigotes infected BALB/c mouse assessed as reduction of parasite burden at 33 mg/kg/day, intralesionally administered after 1 week post infection 3 times per week for 6 weeks measured on week 4 by fluorescence method relative to control. Format: functional, organism-based. On the set-up: scale not given: the % may be the effect or the level left.

In brackets after ≈: the same amount, converted by molar mass. Activity calls are given as the source filed them. The rule behind the calls is not given here.

For `O=C(Cn1ccnc1[N+](=O)[O-])NCc1ccccc1`, the result in the data set on Trypanosoma cruzi [1] was Active.

For the molecule `CO[C@H]1/C=C/O[C@@]2(C)Oc3c(C)c(O)c4c(O)c(c(/C=N/N5CCN(C)CC5)c(O)c4c3C2=O)NC(=O)/C(C)=C\C=C\[C@H](C)[C@H](O)[C@@H](C)[C@@H](O)[C@@H](C)[C@H](OC(C)=O)[C@@H]1C` [RIFAMPIN], the selectivity ratio at 72 h in data set [2] came out at 1080. Further, in [3], the “Ratio IC50” value is 1080. The minimum inhibitory concentration (MIC) (in general, the lowest concentration found to suppress growth) in data set [4] was less than 1.9 µM; in data set [5], 0.1 µM (≈ 0.0823 µg/mL).

On to `CCC(CC)=NNc1ncnc2sc3c(c12)CCCC3`, for which the IC50 (commonly the midpoint of a concentration-inhibition curve) in the data set on Vero was found to be 20.8 µM; in the data set with Leishmania peruviana it was 7 µM; with Leishmania amazonensis [6], 19 µM; with Trypanosoma cruzi [8], 20.7 µM; with Leishmania braziliensis, 11.1 µM; in the data set on Leishmania amazonensis [13], 10.9 µM. The concentration for half-maximal inhibition (IC50) in [14] turned out to be 162 µM. Further, the Activity was found to be 2.8 mm in the data set with Leishmania amazonensis [7], 17% in the data set on Leishmania amazonensis [12], 4.9 mm with Leishmania amazonensis [15] and 65% with Leishmania amazonensis [16]. Further, the concentration for 50% growth inhibition (GI50) (in general, the concentration giving 50% growth inhibition) in the data set on DU-145 was 15 µM; with NCI-H460 it was 15.2 µM; in data set [9], 4.8 µM; with MCF7, 15.1 µM; in the data set with HT-29 it was 38.9 µM; with M14, 20.6 µM. This molecule had a GI50 with K562 of 11.6 µM. Further, the selectivity ratio in [10] amounted to 1. In addition, the “Ratio IC50” value in data set [11] is 8.5; in data set [3], 0.7. The same molecule yielded a minimal inhibitory concentration (MIC) in data set [5] of 160 µM (≈ 46.2 µg/mL).

`Clc1ccc(/C=N/Nc2ncnc3sc4c(c23)CCCC4)cc1`: the IC50 in the data set with Vero was 20.4 µM; in the data set on Leishmania peruviana it was more than 30 µM; with Leishmania amazonensis [6] it was 1.7 µM; with Trypanosoma cruzi [8], 13.1 µM; with Leishmania braziliensis, 17.3 µM; with Leishmania amazonensis [13], more than 30 µM. This molecule showed an IC50 in [14] of 142 µM. For the same molecule, the Activity in the data set with Leishmania amazonensis [7] is recorded as 3.6 mm; with Leishmania amazonensis [12], 25%; in the data set with Leishmania amazonensis [15], 5.2 mm; with Leishmania amazonensis [16] it was 46%. In addition, the 50% growth inhibitory concentration (GI50) is 14.6 µM in the data set with DU-145; 12.8 µM in the data set on NCI-H460; 18.7 µM in data set [9]; 8.4 µM with MCF7; 15.1 µM with HT-29; more than 170 µM in the data set on M14. The molecule also displayed a 50% growth inhibitory concentration (GI50) in the data set on K562 of 6.7 µM. For the same molecule, the selectivity ratio in data set [10] is 1.6. The “Ratio IC50” value in [11] was 85.2. In addition, in data set [5], the MIC is more than 250 µM.

As to MEGLUMINE ANTIMONATE, the Activity amounted to 2.1 mm in the data set on Leishmania amazonensis [17]; 100% with Leishmania amazonensis [18]; 2.2 mm in the data set on Leishmania amazonensis [19]; 100% with Leishmania amazonensis [20]; 4.7 mm in the data set on Leishmania amazonensis [15].

For the molecule `CCc1ccc(/C=N/Nc2ncnc3sc4c(c23)CCCC4)cc1`, the IC50 is 9.5 µM in the data set on Leishmania peruviana; 15.7 µM with Leishmania amazonensis [6]; more than 25 µM in the data set on Trypanosoma cruzi [8]; 10.5 µM with Leishmania braziliensis; 8.2 µM with Leishmania amazonensis [13]; 151 µM in data set [14]. Besides, the Activity is 3 mm in the data set on Leishmania amazonensis [7], 2% in the data set on Leishmania amazonensis [12], 4.7 mm in the data set on Leishmania amazonensis [15] and 30% in the data set on Leishmania amazonensis [16]. For the same molecule, the 50% growth inhibitory concentration (GI50) in the data set on DU-145 worked out at 58.8 µM; with NCI-H460, 28.2 µM; in data set [9] it was 36.1 µM; with MCF7, 18.5 µM; with HT-29, 32.2 µM; in the data set with M14, 190 µM. The molecule further yielded a GI50 in the data set on K562 of 11.1 µM. The “Ratio IC50” value in data set [11] turned out to be 9.6. For the same molecule, in [5], the MIC was more than 250 µM.

Take `C(=C\c1ccccc1)/C=N/Nc1ncnc2sc3c(c12)CCCC3`: the IC50 with Vero is 20.9 µM; in the data set with Leishmania amazonensis [6], 16.6 µM; in the data set on Trypanosoma cruzi [8], 1.4 µM; in [14] it was 1.7 µM. Also, the GI50 in the data set on DU-145 is 5.4 µM; in the data set with NCI-H460, 2.1 µM; in [9], 4.4 µM; in the data set with MCF7 it was 2.1 µM; in the data set with HT-29 it was 8.2 µM; with M14, 4.6 µM. In the data set with K562, this molecule gave a GI50 of 1.6 µM. Further, in data set [10], the selectivity ratio is 14.6. For the same molecule, the “Ratio IC50” value in data set [11] and in data set [3] was 0.1 in each case. This molecule displayed an MIC in [5] of 35 µM (≈ 11.7 µg/mL). For the same molecule, the outcome with Trypanosoma cruzi [1] was inactive.
